Here are results for 36 compounds from PMC12519464, “Dual-Site Inhibition of SARS-CoV‑2 RNA-Dependent RNA Polymerase by Small Molecules Able to Block Viral Replication Identified through a Computer-Aided Drug Discovery Approach” (ACS Infectious Diseases, 2025).

The assay concerns the target SARS-CoV-2 nsp12/7/8 (RTC) complex (Severe acute respiratory syndrome coronavirus 2, UniProt P0DTD1). In words: biochemical. The assay is classed as biochemical.
Setting [1] is: read-out: IC50: compound concentration required to inhibit by 50% the SARS-CoV-2 RTC enzymatic activity.
The mark [2] stands for this setting: primer-extension PAGE assay, 150 nM RTC, 5% DMSO, 30 min preincubation at 37 °C, mean and SD of at least 3 independent experiments.

Like-named read-outs stand apart in the source and are kept apart here. A value given as a limit tells only on which side of the number the result lay.

Regarding `O=C(NCC(O)CNC(=O)/C(=C\c1ccco1)NC(=O)c1ccccc1)/C(=C\c1ccco1)NC(=O)c1ccccc1` [N-[(E)-3-[[3-[[(E)-2-benzamido-3-(furan-2-yl)prop-2-enoyl]amino]-2-hydroxypropyl]amino]-1-(furan-2-yl)-3-oxoprop-1-en-2-yl]benzamide], the IC50 under setting [1] came out at 90.1 ± 14 µM. Take `Cc1oc2c(C)c3oc(=O)c(CC(=O)N4C[C@H]5C[C@@H](C4)c4cccc(=O)n4C5)c(C)c3cc2c1-c1ccccc1` [(1S,9R)-11-[2-(2,5,9-trimethyl-7-oxo-3-phenylfuro[3,2-g]chromen-6-yl)acetyl]-7,11-diazatricyclo[7.3.1.02,7]trideca-2,4-dien-6-one]: the IC50 under setting [1] stood at 28.3 ± 6.24 µM. Regarding `CC[C@@]1([C@@H]2O[C@@H]([C@H]3O[C@@](O)(CO)[C@H](C)C[C@@H]3C)C[C@@H]2C)CC[C@H]([C@]2(C)CC[C@]3(C[C@H](O)[C@@H](C)[C@@H]([C@@H](C)[C@@H](OC)[C@H](C)C(=O)O)O3)O2)O1` [Monensin], the IC50 was over 100 µM. As to `Cc1ccccc1N=Cc1c(O)c(O)c(C(C)C)c2cc(C)c(-c3c(C)cc4c(C(C)C)c(O)c(O)c(C=Nc5ccccc5C)c4c3O)c(O)c12` [3-methyl-8-[(2-methylphenyl)iminomethyl]-5-propan-2-yl-2-[1,6,7-trihydroxy-3-methyl-8-[(2-methylphenyl)iminomethyl]-5-propan-2-ylnaphthalen-2-yl]naphthalene-1,6,7-triol], under setting [1], the IC50 was 28.4 ± 7.42 µM.

For `O=C(c1ccccc1Cl)c1cccnc1-c1nnn(Cc2cc(C(F)(F)F)cc(C(F)(F)F)c2)c1-c1ccncc1` [Tradipitant, reference compound], the IC50 under setting [1] is over 100 µM. Turning to `C=CC(=O)N1CCN(c2nc(=O)n(-c3c(C)ccnc3C(C)C)c3nc(-c4c(O)cccc4F)c(F)cc23)[C@@H](C)C1` [Sotorasib, reference compound], under setting [2], the IC50 was determined as 47 ± 10.6 µM. Regarding `C[C@H]1[C@H](C)CC[C@]2(C(=O)O)CC[C@]3(C)C(=CC[C@@H]4[C@@]5(C)C[C@@H](O)[C@H](O)[C@@](C)(CO)[C@@H]5CC[C@]43C)[C@H]12` [Asiatic Acid], the IC50 is over 100 µM. `C/C(Nc1ccc(Oc2ccc(N/C(C)=C3\C(=O)C[C@@H]4[C@H]3C4(C)C)cc2)cc1)=C1/C(=O)C[C@@H]2[C@H]1C2(C)C` [(1S,2Z,5R)-2-[1-[4-[4-[[(1Z)-1-[(1S,5R)-6,6-dimethyl-3-oxo-2-bicyclo[3.1.0]hexanylidene]ethyl]amino]phenoxy]anilino]ethylidene]-6,6-dimethylbicyclo[3.1.0]hexan-3-one]: the IC50 under setting [1] was over 100 µM. `O=C(COc1ccc2c(-c3ccccc3)cc(=O)oc2c1)Nc1ccc(OCc2ccccc2)cc1` [2-(2-oxo-4-phenylchromen-7-yl)oxy-N-(4-phenylmethoxyphenyl)acetamide]: the IC50 under setting [1] turned out to be 80.5 ± 6.24 µM.

As to `CC1=C(/C=C/C(C)=C/C=C/C(C)=C/C(=O)Nc2ccc(O)cc2)C(C)(C)CCC1` [Fenretinide, reference compound], the IC50 was over 100 µM. Consider `CC#C/C(=N/OC[C@H]1COCCN1)c1ccc2ncnc(Nc3ccc(OCc4cccc(F)c4)c(Cl)c3)c2c1` [N-[3-chloro-4-[(3-fluorophenyl)methoxy]phenyl]-6-[(E)-N-[[(3R)-morpholin-3-yl]methoxy]-C-prop-1-ynylcarbonimidoyl]quinazolin-4-amine, reference compound], for which the IC50 under setting [1] was over 100 µM.

As for `C[C@]1(O)C[C@@H](c2nc(-c3ccc4ccc(-c5ccccc5)nc4c3)c3c(N)nccn32)C1` [Linsitinib, reference compound], the IC50 was over 100 µM. For `C[C@@H]1CC[C@]2(C(=O)O)CC[C@]3(C)C(=CC[C@@H]4[C@@]5(C)C[C@@H](O)[C@H](O)C(C)(C)[C@@H]5CC[C@]43C)[C@@H]2[C@]1(C)O` [Tormentic acid], the IC50 under setting [1] was over 100 µM. Still for that read-out and setting: the same measure for `COc1ccc2cc(-c3cc(-c4cc(Cl)cc(Cl)c4)nn3[C@@H](C)c3ccc(C(=O)NCCC(=O)O)cc3)ccc2c1` [3-[[4-[(1S)-1-[3-(3,5-dichlorophenyl)-5-(6-methoxynaphthalen-2-yl)pyrazol-1-yl]ethyl]benzoyl]amino]propanoic acid, reference compound]: 11.8 ± 6.43 µM.

Take `CC[C@H](/C=C/[C@@H](C)[C@H]1CC[C@H]2C3=CC[C@H]4C[C@@H](O[C@@H]5O[C@H](CO)[C@@H](O)[C@H](O)[C@H]5O)CC[C@]4(C)[C@H]3CC[C@]12C)C(C)C` [Alpha-Spinasterol glucoside]: the IC50 under setting [1] was over 100 µM. Compound `Cc1ccc(-n2nc(C(C)(C)C)cc2NC(=O)Nc2ccc(OCCN3CCOCC3)c3ccccc23)cc1` [Doramapimod, reference compound] showed an IC50 of over 100 µM.

For the compound `C[C@@H]1CC[C@@]2(OC1)O[C@H]1C[C@H]3[C@@H]4CC[C@@H]5C[C@@H](O)CC[C@]5(C)[C@H]4CC[C@]3(C)[C@H]1[C@@H]2C` [Smilagenin, reference compound], under setting [1], the IC50 is over 100 µM.

Under setting [2], `C[C@@H]1CC[C@]2(C(=O)O)CC[C@]3(C)C(=CC[C@@H]4[C@@]5(C)CC[C@H](O)[C@@](C)(CO)[C@@H]5CC[C@]43C)[C@@H]2[C@]1(C)O` [Rotundic acid] gave an IC50 of over 100 µM. For the compound `CC(C)=CCC[C@](C)(O)[C@H]1CC[C@]2(C)[C@@H]1[C@H](O)C[C@@H]1[C@@]3(C)CC[C@H](O)C(C)(C)[C@@H]3CC[C@]12C` [(20S)-Protopanaxadiol], the IC50 under setting [1] was over 100 µM.

For `C[C@H]1CC[C@]2(NC1)O[C@H]1C[C@H]3[C@@H]4CC[C@H]5C[C@@H](O)CC[C@]5(C)[C@H]4CC[C@]3(C)[C@H]1[C@@H]2C` [Tomatidine], the IC50 amounted to 51.4 ± 5.58 µM. Under setting [2], `C[C@H](NC(=O)c1c(N)nn2cccnc12)c1cc2cccc(C#Cc3cnn(C)c3)c2c(=O)n1-c1ccccc1` [Eganelisib, reference compound] displayed an IC50 of over 100 µM. `O=C(O[C@@H]1Cc2c(O)cc(O)cc2O[C@@H]1c1cc(=O)c(O)c2c(O)c(O)cc([C@H]3Oc4cc(O)cc(O)c4C[C@H]3O)c2c1)c1cc(O)c(O)c(O)c1` [Theaflavin 3-gallate]: the IC50 under setting [1] was 19.8 ± 3.49 µM. `CC1(C)CC[C@]2(C(=O)O)CC[C@]3(C)C(=CC[C@@H]4[C@@]5(C)CC[C@H](O[C@@H]6O[C@H](C(=O)O)[C@@H](O[C@@H]7O[C@@H](CO)[C@H](O)[C@H]7O)[C@H](O)[C@H]6O)C(C)(C)[C@@H]5CC[C@]43C)[C@@H]2C1` [Narcissiflorine]: the IC50 under setting [1] amounted to 17.2 ± 5.96 µM.

As for `C=C(C)[C@@H]1CC[C@]2(C)CC[C@]3(C)[C@H](CC[C@@H]4[C@@]5(C)CC[C@H](OC(C)=O)C(C)(C)[C@@H]5CC[C@]43C)[C@@H]12` [Lupeol Acetate], the IC50 under setting [1] was over 100 µM. For `Cc1cc2c(C(C)C)c(O)c(O)c(C=NCc3ccncc3)c2c(O)c1-c1c(C)cc2c(C(C)C)c(O)c(O)c(C=NCc3ccncc3)c2c1O` [3-methyl-5-propan-2-yl-8-(pyridin-4-ylmethyliminomethyl)-2-[1,6,7-trihydroxy-3-methyl-5-propan-2-yl-8-(pyridin-4-ylmethyliminomethyl)naphthalen-2-yl]naphthalene-1,6,7-triol], the IC50 under setting [1] turned out to be 16.1 ± 0.32 µM. On to `CC(C)[C@@H](NC(=O)C1(c2ccccc2)CCN(C(=O)OC(C)(C)C)CC1)C(=O)N[C@@H](C(=O)O)c1ccccc1` [(2R)-[(N-{[1-(tert-butoxycarbonyl)-4-phenylpiperidin-4-yl]carbonyl}-D-valyl)amino](phenyl)ethanoic acid], for which the IC50 under setting [1] was over 100 µM. In turn, `CO[C@H]1/C=C/O[C@@]2(C)Oc3c(C)c(O)c4c(O)c(c5c(nc6cc(C)ccn65)c4c3C2=O)NC(=O)/C(C)=C\C=C\[C@H](C)[C@H](O)[C@@H](C)[C@@H](O)[C@@H](C)[C@H](OC(C)=O)[C@@H]1C` [Rifaximin, reference compound] showed an IC50 under setting [2] of over 100 µM. Regarding `COc1ccc2cc(S(=O)(=O)N[C@H](CC(=O)N[C@H](Cc3ccc(CN4[C@H](C)CCC[C@@H]4C)cc3)C(=O)N(C)C(C)C)c3ccc4c(c3)OCO4)ccc2c1` [SSR240612, reference compound], the IC50 under setting [1] was determined as 85.9 ± 4.35 µM. On the same count and under the same terms, for `O=C(Nc1cccc(C(=O)O)c1)/C(=C\c1ccccc1)NC(=O)c1ccc(NC(=O)c2ccccc2)cc1` [3-[[(E)-2-[(4-benzamidobenzoyl)amino]-3-phenylprop-2-enoyl]amino]benzoic acid] the value was 85.7 ± 0.62 µM.

`C[C@H]1[C@H](C)CC[C@]2(C)CC[C@]3(C)C(=CC[C@@H]4[C@@]5(C)CC[C@@H](O)[C@](C)(C(=O)O)[C@@H]5CC[C@]43C)[C@H]12` [Beta-Boswellic acid]: the IC50 stood at 21.1 ± 4.45 µM. Turning to `CC(C)(O)CC[C@H]1OC(C)(C)O[C@]1(C)[C@H]1CC[C@@]2(O)C3=CC(=O)[C@@H]4C[C@H]5OC(C)(C)O[C@H]5C[C@]4(C)[C@H]3CC[C@]12C` [Ecdysterone 2,3:20,22-diacetonide], under setting [1], the IC50 is over 100 µM.

With `C=C(C)[C@@H]1CC[C@]2(C(=O)O)CC[C@]3(C)[C@H](CC[C@@H]4[C@@]5(C)CC[C@H](O[C@@H]6OC[C@H](O)[C@H](O)[C@H]6O[C@@H]6O[C@@H](C)[C@H](O)[C@@H](O)[C@H]6O)[C@@](C)(CO)[C@@H]5CC[C@]43C)[C@@H]12` [Pulchinenoside A], under setting [1], the IC50 is 24.7 ± 0.42 µM. `CC(C)Oc1ccc(-c2nn([C@@H](C)c3oc4ccc(F)cc4c(=O)c3-c3cccc(F)c3)c3ncnc(N)c23)cc1F` [Umbralisib, reference compound] came in with an IC50 of over 100 µM. `CC[C@H](CC[C@@H](C)[C@H]1CC[C@H]2[C@@H]3CC=C4C[C@@H](O[C@@H]5O[C@H](CO)[C@@H](O)[C@H](O)[C@H]5O)CC[C@]4(C)[C@H]3CC[C@]12C)C(C)C` [Daucosterol, reference compound]: under setting [2], the IC50 was over 100 µM. For `C[C@H]1O[C@@H](O[C@H]2CC[C@@]3(C)[C@@H](CC[C@]4(C)[C@@H]3C=C[C@]35OC[C@@]6(CCC(C)(C)C[C@H]63)[C@H](O)C[C@]54C)[C@]2(C)CO)[C@H](O)[C@@H](O[C@@H]2O[C@H](CO)[C@@H](O)[C@H](O)[C@H]2O)[C@H]1O` [Saikosaponin D], the IC50 under setting [1] is over 100 µM. In the case of `CC(C)=CCC[C@@](C)(O)[C@H]1CC[C@]2(C)[C@@H]1[C@H](O)C[C@@H]1[C@@]3(C)CC[C@H](O)C(C)(C)[C@@H]3[C@@H](O[C@@H]3O[C@H](CO)[C@@H](O)[C@H](O)[C@H]3O)C[C@]12C` [(20R)-Ginsenoside Rh1], the IC50 under setting [1] was over 100 µM.
